Assay results taken from patent US20230392180A1, “MICROSCOPIC IMAGING AND ANALYSES OF EPIGENETIC LANDSCAPE” (Sanford Burnham Prebys Medical Discovery Institute, priority 2020, published 2023).
Counter-ions that a name gives are not always drawn.

Key:
primary human fNPCs = test: MIEL-EpiTox of ToxCast Phase I/II+elk library compounds; settings: 10 μM, 72 h, H3K27ac and H3K27me3
Procedure: Cells were treated with test compounds, then fixed and immunolabeled for epigenetic marks. The pattern of marks within each nucleus was analyzed to create multivariate signatures or “fingerprints” of each perturbation. Since the technique analyzes texture features rather than intensities and morphologies, culturing and immunostaining artifacts are reduced. MIEL is related to “cell painting”, in which multivariate analysis of multiplexed biomarkers was used to classify protein localization, cell subpopulations, and drug mechanisms of action. The multiparametric signatures of the cells (centroids) were plotted in 2D via multidimensional scaling (MDS), and support vector machine (SVM) classification was used to establish borders to divide the epigenetic signatures into distinct classes. MIEL was employed to probe the presence of epitoxic compounds in the EPA ToxCast Phase I/II+elk library and examined the effects of 352 compounds on primary human fNPCs (Thermo-Fisher, #A15654). Cells were incubated with 10 μM compound for 72 h, labeled with fluorescence-tagged antibodies to H3K27ac and H3K27me3, and imaged on a Vala Sciences IC200 cytometer. Features were derived using Acapella (Perkin Elmer) high-content imaging and analysis software. SVM classification was conducted as previously described. […] The same criteria were applied to determine toxicity.

[1] = cited from earlier work
[2] = single report; cited from earlier work
GBM2 cells = test: Sensitization to radiation or TMZ; type: cell-based, human; settings: 200 uM, 4 days
Procedure: Sensitization to radiation or TMZ: Cells were plated at 1500 cells/well in 384-well optical bottom assay plates (PerkinElmer). Two sets of the experiment were prepared; DMSO (0.1%) was used for negative controls at 48 DMSO replicates per plate; 3 replicates (wells) were treated per compound. Cells in both sets were pre-treated with epigenetic compounds for 2 days prior to cytotoxic treatment. Cytotoxic treatment, either 200 uM temozolomide (TMZ, Sigma) or 1 Gy x-ray radiation (RS2000; RAD Source) was carried out for 4 days on single set (‘treatment set’); for TMZ treatment, DMSO control was given to the second set. A single radiation dose was given at day 3; TMZ was given twice at days 3 and 5 of the experiment. Cells were fixed, stained with DAPI, and scored using an automated microscope (Celigo; Nexcelom Bioscience). For each compound, fold change in cell number was calculated for both the “treatment set” (Drug+Cytotox) and the “control set” (Drug), compared to DMSO-treated wells in the control set. The effect of radiation or TMZ alone was calculated as fold reduction of DMSO-treated wells in the treatment set compared to DMSO-treated wells in the control set (Cytotox). The coefficient of drug interaction (CDI) was calculated as […]. […]

[3] = Exposure estimated from publicly available information; settings: women, estimating 50-75 kg body weight

## CCCCOC(=O)COc1ccc(Cl)cc1Cl [2,4-D 1-butyl ester]
Primary human fNPCs
  MIEL-EpiTox class (epitoxic, cytotoxic, inert): epitoxic hits producing the largest epigenetic perturbations

## Cc1sc2c(c1C)C(c1ccc(Cl)cc1)=N[C@@H](CC(=O)Nc1ccc(O)cc1)c1nnc(C)n1-2 [OTX015]
[1]; doses achieving biologically active levels
  toxicity in clinical trials: low toxicity
[1]; in vivo
  clinical benefits: no detectable clinical benefits
[2]
  interaction with TMZ: synergy

## Cn1nnc2c(C(N)=O)ncn2c1=O [TMZ, temozolomide]
GBM2 cells
  reduction in cell numbers: 50%

## C[C@@H]1C[C@H]2[C@@H]3CCC4=CC(=O)C=C[C@]4(C)[C@@]3(F)[C@@H](O)C[C@]2(C)[C@@]1(O)C(=O)COS(=O)(=O)O [dexamethasone sulfate]
[3]
  estimated concentrations reached following repeated administration: ~10 µM
